# Test results from ChEMBL document CHEMBL4196140, “Spiro-Phthalides and Isocoumarins Isolated from the Marine-Sponge-Derived Fungus Setosphaeria sp. SCSIO41009” (J Nat Prod, 2018).
# Calls of active or inactive are those of the source. The calls are words filed in the database; no cut-off is given here.
# Tested on: Influenza A virus
# Test: Antiviral activity against Influenza A virus (A/Puerto Rico/8/34(H1N1)) harboring H274Y mutant infected in MDCK cells assessed as inhibition of virus-induced cytopathic effect after 48 hrs by MTT assay
# Type: functional, organism-based
# Details: A/Puerto Rico/8/1934(H1N1)
row,SMILES,inhibition
1,CCC[C@@H]1C[C@H]2OC(=O)c3c(cc(O)c(OC)c3O)[C@@H]2O1,inactive
2,CCC[C@H]1C[C@H](O)[C@@]2(OC(=O)c3c2cc(OC)c(OC)c3O)O1,inactive
3,CC[C@@H](O)[C@H]1C[C@H]2OC(=O)c3c(cc(OC)c(OC)c3O)[C@H]2O1,inactive
4,COc1cc(=O)oc(C)c1CCCC(=O)O,inactive
5,CCC(O)Cc1c(OC)cc(=O)oc1C (configuration not stated),inactive
6,CCC[C@H]1C[C@H]2OC(=O)c3c(cc(OC)c(O)c3O)[C@H]2O1,inactive
7,CCC[C@H]1C[C@H](O)[C@]2(OC(=O)c3c2cc(OC)c(OC)c3O)O1,inactive
8,CCCC(=O)CC[C@H]1OC(=O)c2c1cc(O)c(OC)c2O,inactive
9,CCCCc1c(OC)cc(=O)oc1C,inactive
10,CCC[C@H]1C[C@H]2OC(=O)c3c(cc(OC)c(OC)c3O)[C@@H]2O1,inactive
11,CCC[C@@H]1C[C@H]2OC(=O)c3c(cc(OC)c(OC)c3O)[C@@H]2O1,inactive
12,CCCCc1c(OC)cc(=O)oc1CO,inactive
13,CC[C@H](O)[C@H]1C[C@H]2OC(=O)c3c(cc(OC)c(OC)c3O)[C@H]2O1,inactive
14,COCc1c(O)cc(C)c2c1Oc1c(C)cc(O)c(C)c1OC2=O,inactive
15,COc1cc2c(c(O)c1OC)C(=O)O[C@@H]1C[C@H](C[C@@H](C)O)O[C@H]21,inactive
16,CCCCOCc1c(O)cc(C)c2c1Oc1c(C)cc(O)c(C)c1OC2=O,inactive
17,CCCC(=O)CC[C@@H]1OC(=O)c2c1cc(OC)c(OC)c2O,inactive
18,COc1cc(=O)oc(C)c1CCC(C)O (configuration not stated),inactive
19,COC(=O)CCCc1c(OC)cc(=O)oc1C,inactive
20,CCCCC1=C(OC)C(=O)OC1(C)O (racemic),inactive
21,COc1cc2c(c(O)c1OC)C(=O)O[C@@H]1C[C@H](CCCO)O[C@H]21,inactive
22,COc1cc2c(c(O)c1OC)C(=O)O[C@@H]1C[C@H](CCC(=O)O)O[C@H]21,inactive
